According to patent US20160287575A1, “COMPOSITIONS AND METHODS FOR THE TREATMENT OF DISEASES INVOLVING HIPPO PATHWAY” (DUKE UNIVERSITY, priority 2013, published 2016):
Residues, ends and D or L forms follow the SMILES beside them. *: point of attachment. Cbz = O=C(OCc1ccccc1)*

How the values were obtained:
[1] = target: T1, MST1 (Homo sapiens, UniProt Q13043, K59R); assay: staurosporine stimulation, MST1 phosphorylation by immunoblot; format: cell-based; conditions: MST1 K59R expressing HSMM^PF+H+M cells, 1 μM STS, 1 hour
T1 construct: expressed in transfected cells; host or cells: HSMM^PF+H+M cells (human skeletal muscle myoblasts expressing PAX3-FOXO1, hTERT, MycN), with or without RASSF4 shRNA
T1 sequence (Q13043 1-487 K59R): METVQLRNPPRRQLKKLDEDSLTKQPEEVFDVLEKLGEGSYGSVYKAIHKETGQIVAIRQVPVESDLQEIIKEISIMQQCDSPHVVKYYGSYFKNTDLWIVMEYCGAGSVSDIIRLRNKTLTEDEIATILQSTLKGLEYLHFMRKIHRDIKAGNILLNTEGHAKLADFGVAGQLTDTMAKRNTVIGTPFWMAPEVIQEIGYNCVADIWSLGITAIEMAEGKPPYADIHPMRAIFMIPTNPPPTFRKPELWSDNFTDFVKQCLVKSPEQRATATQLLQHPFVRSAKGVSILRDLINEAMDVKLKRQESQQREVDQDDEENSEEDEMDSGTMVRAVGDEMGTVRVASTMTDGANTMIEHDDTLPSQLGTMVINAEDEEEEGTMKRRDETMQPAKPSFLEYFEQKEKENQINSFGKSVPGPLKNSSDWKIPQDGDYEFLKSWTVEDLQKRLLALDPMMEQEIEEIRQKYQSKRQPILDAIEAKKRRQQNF
Experimental: (A) RASSF4 deficiency causes MST1 phosphorylation and cleavage upon staurosporine (STS) treatment. Cells expressing FLAG-MST1 K59R were treated for 1 hour with 1 μM STS and examined for phosphor-MST1/2 and total MST1 by immunoblot. (B) Upon 1 hour treatment with 1 μM STS, RASSF4-deficient aRMS cells display higher cleaved caspase 3 as measured by immunoblot. In A and B, actin was used as a loading control.
However, even without the ability to activate downstream signaling, MST1 K59R can still be regulated like wild-type MST1 through phosphorylation by upstream kinases and caspase cleavage. Since endogenous phospho-MST1 levels and MST1 cleavage products were in low abundance in aRMS cells and were difficult to detect, we used cells expressing MST1K59R to boost MST1 expression, while maintaining cell viability. We stimulated cells with staurosporine (STS), a well-established activator of MST1, and examined the role of RASSF4 in MST1 phosphorylation and cleavage (Graves et al., J. Biol. Chem 276:14909-14915 (2001)). […] This is the reported size of the MST1 cleavage fragment believed to be regulated by caspases (Graves et al. (2001); Cheung et al., Cell 113:507-517 (2003); Praskova et al., Biochem J. 381:453-462 (2004)). […]

[2] = system: YAP; assay: pharmacological block of YAP protein turnover in RASSF4-deficient aRMS cells; format: cell-based, human; conditions: RASSF4-deficient aRMS cells versus control; data not shown
Excerpt: Finally, we examined whether there was a connection between RASSF4 and YAP. […] Since YAP protein is turned over by sequential phosphorylation and ubiquitin-mediated degradation (Zhao et al., Genes Dev. 24:72-85 (2010)), we attempted to pharmacologically block YAP protein turnover in RASSF4-deficient cells using MG132 or IC 261. […] When examined at the transcriptional level, we observed a decreasing trend in YAP mRNA levels that only reached significance with one RASSF4 shRNA. Since RASSF4 loss of function was causing growth arrest and senescence, we reasoned that these effects on YAP could be caused by the growth arrest itself and RASSF4 loss. […] Instead, cells expressing YAP S127A and RASSF4 shRNA had more pronounced mitotic defects (data not shown). Therefore, while we cannot identify a clear connection between RASSF4 and YAP in aRMS at this time, Hippo signaling is clearly dysregulated at multiple levels in RMS through RASSF4-MST1 and YAP-mediated mechanisms (FIG. 7F).

[3] = target: Yki/YAP and transcriptional coactivator TEAD/TEF transcription factors (Homo sapiens, UniProt P46937); conditions: identified in a screen; cited from earlier work
[4] = system: LATS1; assay: nocodazole treatment, LATS1 phosphorylation by immunoblot; format: cell-based, human; conditions: nocodazole-treated HSMM^PF+H+M cells, control and RASSF4-knockdown

Chain of Yki/YAP and transcriptional coactivator TEAD/TEF transcription factors (P46937 whole entry): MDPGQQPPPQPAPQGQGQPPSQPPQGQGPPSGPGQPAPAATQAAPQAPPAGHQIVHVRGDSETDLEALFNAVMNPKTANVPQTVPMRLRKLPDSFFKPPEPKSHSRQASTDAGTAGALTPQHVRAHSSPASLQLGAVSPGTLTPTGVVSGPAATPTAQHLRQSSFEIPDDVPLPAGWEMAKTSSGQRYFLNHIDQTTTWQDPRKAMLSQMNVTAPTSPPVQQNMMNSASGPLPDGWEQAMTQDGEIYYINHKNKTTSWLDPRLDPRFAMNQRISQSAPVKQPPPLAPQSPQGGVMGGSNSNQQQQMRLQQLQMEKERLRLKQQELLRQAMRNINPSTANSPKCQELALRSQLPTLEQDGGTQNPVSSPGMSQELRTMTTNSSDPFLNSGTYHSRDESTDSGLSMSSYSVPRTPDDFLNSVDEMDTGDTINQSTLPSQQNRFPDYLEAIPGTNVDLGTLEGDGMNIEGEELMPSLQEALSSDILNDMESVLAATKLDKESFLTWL

CN[C@@H]1C[C@H]2O[C@@](C)([C@@H]1OC)n1c3ccccc3c3c4c(c5c6ccccc6n2c5c31)C(=O)NC4 [staurosporine]
phosphorylation of full-length MST1 [1]: increased phosphorylation of full-length MST1

COc1cc(OC)c(C=C2C(O)=Nc3ccccc32)c(OC)c1 [IC 261]
phospho-YAP and total YAP levels [2]: still lower

verteporfin
disruption of physical interactions between Yki/YAP and TEAD/TEF [3]: capable of disrupting physical interactions

COC(=O)Nc1nc2ccc(C(=O)c3cccs3)cc2[nH]1 [nocodazole]
phosphorylated LATS1 [4]: reduction in phosphorylated LATS1

CC(C)C[C@@H](C=O)NC(=O)[C@H](CC(C)C)NC(=O)[C@H](CC(C)C)NC(=O)OCc1ccccc1 [MG132] (Cbz-Leu-Leu-Leu-aldehyde)
phospho-YAP and total YAP levels [2]: still lower
